Results published in patent US8334235B2, “Thiadiazolyloxyphenylamidines and use thereof as fungicides” (Bayer Cropscience AG, priority 2008, dated 2012).

Key:
Type in all cases: in vivo
Alternaria solani = experiment: Alternaria test (tomato)/protective; conditions: 72 h, 100 ppm active substance, protective, evaluation 3 days after inoculation, read-out: degree of effectiveness
Protocol: (§1) • Solvents: 24.5 parts by weight of acetone • 24.5 parts by weight of dimethylacetamide • Emulsifier: 1 part by weight of alkylaryl polyglycol ether (polyoxyethylene (16) tristearylphenyl ether)
To prepare a suitable active substance composition, 1 part by weight of substance is mixed with the given amounts of solvents and emulsifier and the concentrate is diluted to the desired concentration using water.
For the testing of protective effectiveness, young plants are sprayed with the active substance composition in the application rate given. After the spray coating has been dried on, the plants are inoculated with an aqueous suspension of spores of Alternaria solani. The plants are then placed in an incubation chamber at approximately 20° C. and 100% relative humidity.
Evaluation is carried out 3 days after the inoculation. In this connection, 0% means a degree of effectiveness corresponding to that of the control, while a degree of effectiveness of 100% means that no infestation is observed.

Sphaerotheca fuliginea = experiment: Sphaerotheca test (cucumber)/protective; conditions: Podosphaera fuliginea, 168 h, 500 ppm active substance, protective, evaluation 7 days after inoculation, read-out: degree of effectiveness
Protocol: • Solvent: 49 parts by weight of N,N-dimethylformamide • Emulsifier: 1 part by weight of alkylaryl polyglycol ether (polyoxyethylene (16) tristearylphenyl ether) To prepare a suitable active substance composition, 1 part by weight of active substance is mixed with the given amounts of solvents and emulsifier and the concentrate is diluted to the desired concentration using water. For the testing of protective effectiveness, young cucumber plants are sprayed with the active substance composition in the application rate given. One day after treatment, the plants are inoculated with a suspension of spores of Sphaerotheca fuliginea. The plants are then placed in a greenhouse at 70% relative humidity and a temperature of 23° C. Evaluation is carried out 7 days after the inoculation. In this connection, 0% means a degree of effectiveness corresponding to that of the control, while a degree of effectiveness of 100% means that no infestation is observed.

Puccinia triticina [1] = experiment: Puccinia triticina test (wheat)/protective; conditions: 192 h, 500 ppm active substance, protective, evaluation 8 days after inoculation, read-out: degree of effectiveness
Protocol: (§2) • Solvent: 50 parts by weight of N,N-dimethylacetamide • Emulsifier: 1 part by weight of alkylaryl polyglycol ether (polyoxyethylene (16) tristearylphenyl ether)
(§3) To prepare a suitable active substance composition, 1 part by weight of active substance is mixed with the given amounts of solvent and emulsifier and the concentrate is diluted to the desired concentration using water.
For the testing of protective effectiveness, young plants are sprayed with the active substance composition in the application rate given. After the spray coating has been dried on, the plants are sprayed with a suspension of spores of Puccinia triticina. The plants remain in an incubation chamber at 20° C. and 100% relative humidity for 48 hours. The plants are placed in a greenhouse at a temperature of approximately 20° C. and a relative humidity of approximately 80%.
(§4) Evaluation is carried out 8 days after the inoculation. In this connection, 0% means a degree of effectiveness corresponding to that of the control, while a degree of effectiveness of 100% means that no infestation is observed.

Puccinia triticina [2] = experiment: Puccinia triticina test (wheat)/curative; conditions: 192 h, 500 ppm active substance, curative, evaluation 8 days after inoculation, read-out: degree of effectiveness
Protocol: as §2, §3
For the testing of curative effectiveness, young plants are sprayed with a suspension of spores of Puccinia triticina. The plants remain in an incubation chamber at 20° C. and 100% relative humidity for 48 hours and are then sprayed with the active substance composition in the application rate given. The plants are placed in a greenhouse at a temperature of approximately 20° C. and a relative humidity of approximately 80%.
as §4

[3] = system: bean rust pathogen Uromyces appendiculatus; experiment: Uromyces test (beans)/protective; conditions: 240 h, 100 ppm active substance, protective, evaluation 10 days after inoculation, read-out: degree of effectiveness
Protocol: as §1
To prepare a suitable active substance composition, 1 part by weight of active substance is mixed with the given amounts of solvents and emulsifier and the concentrate is diluted to the desired concentration using water.
For the testing of protective effectiveness, young plants are sprayed with the active substance composition in the application rate given. After the spray coating has been dried on, the plants are inoculated with an aqueous suspension of the spores of the bean rust pathogen Uromyces appendiculatus and then remain in an incubation chamber at approximately 20° C. and 100% relative humidity for 1 day.
The plants are then placed in a greenhouse at approximately 21° C. and a relative humidity of approximately 90%.
Evaluation is carried out 10 days after the inoculation. In this connection, 0% means a degree of effectiveness corresponding to that of the control, while a degree of effectiveness of 100% means that no infestation is observed.

CCN(C)/C=N/c1cc(C)c(Oc2nc(Cc3ccc(F)cc3F)ns2)cc1Cl [Compound 40, N′-(2-chloro-4-{[3-(2,4-difluorobenzyl)-1,2,4-thiadiazol-5-yl]oxy}-5-methylphenyl)-N-ethyl-N-methylimidoformamide]
≥ 70%: pest or weed control at 100 ppm (Alternaria solani) | pest or weed control at 500 ppm (Sphaerotheca fuliginea) | pest or weed control at 500 ppm (Puccinia triticina [1]) | pest or weed control at 500 ppm (Puccinia triticina [2])

CCN(C)/C=N/c1cc(C)c(Oc2nc(Cc3ccc(Cl)cc3Cl)ns2)cc1Cl [Compound 38, N′-(2-chloro-4-{[3-(2,4-dichlorobenzyl)-1,2,4-thiadiazol-5-yl]oxy}-5-methylphenyl)-N-ethyl-N-methylimidoformamide]
≥ 70%: pest or weed control at 100 ppm [3] | pest or weed control at 500 ppm (Sphaerotheca fuliginea) | pest or weed control at 500 ppm (Puccinia triticina [1]) | pest or weed control at 500 ppm (Puccinia triticina [2])

CCN(C)/C=N/c1cc(C)c(Oc2nc(C(C)(C)CCl)ns2)cc1Cl [Compound 39, N′-(2-chloro-4-{[3-(1-chloro-2-methylpropan-2-yl)-1,2,4-thiadiazol-5-yl]oxy}-5-methylphenyl)-N-ethyl-N-methylimidoformamide]
≥ 70%: pest or weed control at 100 ppm (Alternaria solani) | pest or weed control at 100 ppm [3] | pest or weed control at 500 ppm (Sphaerotheca fuliginea) | pest or weed control at 500 ppm (Puccinia triticina [1]) | pest or weed control at 500 ppm (Puccinia triticina [2])

Cc1cc(N=CN(C)C(C)C)c(Cl)cc1Oc1nc(C(C)c2ccc(Cl)cc2)ns1 (stereo not shown) [Compound 8, N′-[2-chloro-4-({3-[1-(4-chlorophenyl)ethyl]-1,2,4-thiadiazol-5-yl}oxy)-5-methylphenyl]-N-methyl-N-(propan-2-yl)imidoformamide]
≥ 70%: pest or weed control at 100 ppm [3] | pest or weed control at 500 ppm (Sphaerotheca fuliginea)

CCN(C)C=Nc1cc(C)c(Oc2nc(C3(C)CC3(Cl)Cl)ns2)cc1Cl (stereo not shown) [Compound 32, N′-(2-chloro-4-{[3-(2,2-dichloro-1-methylcyclopropyl)-1,2,4-thiadiazol-5-yl]oxy}-5-methylphenyl)-N-ethyl-N-methylimidoformamide]
≥ 70%: pest or weed control at 100 ppm (Alternaria solani) | pest or weed control at 100 ppm [3] | pest or weed control at 500 ppm (Sphaerotheca fuliginea) | pest or weed control at 500 ppm (Puccinia triticina [1]) | pest or weed control at 500 ppm (Puccinia triticina [2])

CCCN(C)/C=N/c1cc(C)c(Oc2nc(C(C)(C)C)ns2)cc1Cl [Compound 24, N′-{4-[(3-(tert-butyl)-1,2,4-thiadiazol-5-yl)oxy]-2-chloro-5-methylphenyl}-N-methyl-N-propylimidoformamide]
≥ 70%: pest or weed control at 100 ppm (Alternaria solani) | pest or weed control at 500 ppm (Sphaerotheca fuliginea) | pest or weed control at 500 ppm (Puccinia triticina [1]) | pest or weed control at 500 ppm (Puccinia triticina [2])

CCN(C)C=Nc1cc(C)c(Oc2nc(C3(c4ccc(Cl)cc4)CC3)ns2)cc1Cl [Compound 17, N′-[2-chloro-4-({3-[1-(4-chlorophenyl)cyclopropyl]-1,2,4-thiadiazol-5-yl}oxy)-5-methylphenyl]-N-ethyl-N-methylimidoformamide]
≥ 70%: pest or weed control at 100 ppm (Alternaria solani) | pest or weed control at 100 ppm [3] | pest or weed control at 500 ppm (Sphaerotheca fuliginea) | pest or weed control at 500 ppm (Puccinia triticina [1]) | pest or weed control at 500 ppm (Puccinia triticina [2])

CCN(C)/C=N/c1cc(C)c(Oc2nc(C(C)(C)C)ns2)cc1Br [Compound 2, N′-{2-bromo-4-[(3-(tert-butyl)-1,2,4-thiadiazol-5-yl)oxy]-5-methylphenyl}-N-ethyl-N-methylimidoformamide]
≥ 70%: pest or weed control at 100 ppm (Alternaria solani) | pest or weed control at 100 ppm [3] | pest or weed control at 500 ppm (Sphaerotheca fuliginea) | pest or weed control at 500 ppm (Puccinia triticina [1]) | pest or weed control at 500 ppm (Puccinia triticina [2])

CCN(C)/C=N/c1cc(C)c(Oc2nc(C(C)(C)C)ns2)cc1Cl [Compound 1, N′-{4-[(3-(tert-butyl)-1,2,4-thiadiazol-5-yl)oxy]-2-chloro-5-methylphenyl}-N-ethyl-N-methylimidoformamide]
≥ 70%: pest or weed control at 100 ppm (Alternaria solani) | pest or weed control at 100 ppm [3] | pest or weed control at 500 ppm (Sphaerotheca fuliginea) | pest or weed control at 500 ppm (Puccinia triticina [1]) | pest or weed control at 500 ppm (Puccinia triticina [2])

CCN(C)/C=N/c1cc(C)c(Oc2nc(C(C)(C)c3ccc(Cl)cc3)ns2)cc1Cl [Compound 11, N′-[2-chloro-4-({3-[2-(4-chlorophenyl)propan-2-yl]-1,2,4-thiadiazol-5-yl}oxy)-5-methylphenyl]-N-ethyl-N-methylimidoformamide]
≥ 70%: pest or weed control at 100 ppm (Alternaria solani) | pest or weed control at 500 ppm (Sphaerotheca fuliginea) | pest or weed control at 500 ppm (Puccinia triticina [1]) | pest or weed control at 500 ppm (Puccinia triticina [2])

CCN(C)/C=N/c1cc(C)c(Oc2nc(C(C)c3ccc(Cl)cc3)ns2)cc1Cl (stereo not shown) [Compound 6]
≥ 70%: pest or weed control at 100 ppm [3] | pest or weed control at 500 ppm (Sphaerotheca fuliginea) | pest or weed control at 500 ppm (Puccinia triticina [1]) | pest or weed control at 500 ppm (Puccinia triticina [2])

CCN(C)C=Nc1cc(C)c(Oc2nc(/C=C/c3ccc(F)cc3)ns2)cc1Cl [Compound 15, N′-[2-chloro-4-({3-[(E)-2-(4-fluorophenyl)ethenyl]-1,2,4-thiadiazol-5-yl}oxy)-5-methylphenyl]-N-ethyl-N-methylimidoformamide]
≥ 70%: pest or weed control at 100 ppm (Alternaria solani) | pest or weed control at 100 ppm [3] | pest or weed control at 500 ppm (Sphaerotheca fuliginea) | pest or weed control at 500 ppm (Puccinia triticina [1]) | pest or weed control at 500 ppm (Puccinia triticina [2])

CCN(C)/C=N/c1cc(C)c(Oc2nc(Cc3ccc(Cl)cc3)ns2)cc1Cl [Compound 18, N′-(2-chloro-4-{[3-(4-chlorobenzyl)-1,2,4-thiadiazol-5-yl]oxy}-5-methylphenyl)-N-ethyl-N-methylimidoformamide]
≥ 70%: pest or weed control at 100 ppm [3] | pest or weed control at 500 ppm (Sphaerotheca fuliginea) | pest or weed control at 500 ppm (Puccinia triticina [1]) | pest or weed control at 500 ppm (Puccinia triticina [2])

CCN(C)/C=N/c1cc(C)c(Oc2nc(Cc3ccc(Br)cc3)ns2)cc1Cl [Compound 33, N′-(4-{[3-(4-bromobenzyl)-1,2,4-thiadiazol-5-yl]oxy}-2-chloro-5-methylphenyl)-N-ethyl-N-methylimidoformamide]
≥ 70%: pest or weed control at 100 ppm (Alternaria solani) | pest or weed control at 500 ppm (Sphaerotheca fuliginea) | pest or weed control at 500 ppm (Puccinia triticina [1]) | pest or weed control at 500 ppm (Puccinia triticina [2])

Cc1cc(N=CN(C)C(C)C)c(Cl)cc1Oc1nc(C(C)(C)c2ccc(Cl)cc2)ns1 [Compound 13, N′-[2-chloro-4-({3-[2-(4-chlorophenyl)propan-2-yl]-1,2,4-thiadiazol-5-yl}oxy)-5-methylphenyl]-N-methyl-N-(propan-2-yl)imidoformamide]
≥ 70%: pest or weed control at 100 ppm (Alternaria solani) | pest or weed control at 500 ppm (Sphaerotheca fuliginea) | pest or weed control at 500 ppm (Puccinia triticina [1]) | pest or weed control at 500 ppm (Puccinia triticina [2])
